These are literature values, as cited in EP0112266B1, “Substituted tropyl and pseudotropyl benzoates and their use in migraine treatment” (MERRELL DOW FRANCE ET CIE, priority 1982, dated 1984).

The target of one series is T1, 5-HT M-receptor (Oryctolagus cuniculus, UniProt G1TUQ4).
T1 sequence (G1TUQ4 24-513): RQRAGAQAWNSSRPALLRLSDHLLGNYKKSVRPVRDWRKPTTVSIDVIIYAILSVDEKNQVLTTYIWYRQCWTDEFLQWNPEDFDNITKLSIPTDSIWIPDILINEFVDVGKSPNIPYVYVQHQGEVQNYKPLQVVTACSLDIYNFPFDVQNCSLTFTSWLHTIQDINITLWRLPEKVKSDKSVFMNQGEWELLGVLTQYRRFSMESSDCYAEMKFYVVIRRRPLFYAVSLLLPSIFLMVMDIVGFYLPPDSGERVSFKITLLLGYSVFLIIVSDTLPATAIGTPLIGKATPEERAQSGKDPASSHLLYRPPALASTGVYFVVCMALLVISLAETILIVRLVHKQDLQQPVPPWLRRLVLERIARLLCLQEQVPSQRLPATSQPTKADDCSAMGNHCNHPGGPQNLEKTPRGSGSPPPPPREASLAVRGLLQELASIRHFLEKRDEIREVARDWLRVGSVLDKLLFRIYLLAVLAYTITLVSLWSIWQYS
The settings on record: potency as 5-HT M-receptor antagonist; literature values (Fozard et al, Eur. J. Pharmacol. 1978/1979).

The conditions of series [1]: slow intravenous injection, 10 mg.
Series [2] deals with isolated guinea pig ileum. As to conditions: stated in Schultz et al, 1972.

`CN1[C@@H]2CC[C@H]1C[C@@H](OC(=O)c1ccccc1)C2` [benzoyl tropine]: the pA2 – broadly, a measure of antagonist potency on a negative log scale – on 5-HT M-receptor is on record as 7.2.

In the case of `CCN(CC)CCNC(=O)c1cc(Cl)c(N)cc1OC` [metoclopramide], the “relief of acute migraine attack” value in series [1] is given as “immediate relief”.

With `CN1[C@@H]2CC[C@H]1C[C@@H](OC(=O)c1ccccc1Cl)C2` [tropyl 2-chlorobenzoate], the spasmolytic- inducing activity result in series [2] is listed as “spasmolytic- inducing activity”.
